US6383771B1, “Enzyme-based assay for determining effects of exogenous and endogenous factors on cellular energy” (Birkmayer Pharmaceuticals, priority 1997, dated 2002)
Where “and” joins values, the source holds several entries; their conditions need not be identical. Equal entries are not always repeated.

Assays:
complex I = conditions: metabolite of MPTP; cited from earlier work
[1] = system: NADH cytochrome C reductase; conditions: certain brain areas; causing Parkinsonian-like symptoms; cited from earlier work
[2] = system: NADH cytochrome C reductase; test: NADH cytochrome C reductase assay of whole blood, competitive cyclists before and after oral NADH; assay type: in vivo, human
Description: (§1) Enzyme Preparation A 1-mL portion of a whole blood sample obtained from a subject by venipuncture is preserved by addition of a suitable preserving agent such as that provided by a citrate solution. To a 100-μL sample of this citrate blood is added 900 μL of phosphate balanced salt solution (PBS) at pH =7.8. The resulting 1-mL portion of buffer-diluted citrate blood is sonified with an apparatus such as that available from BRANSON at a duty cycle of 40%, output position 3. Sonification is repeated a total of ten times for 10 seconds each. An additional 1-mL volume of PBS is added to the sonified solution. The PBS-diluted solution represents the enzyme preparation utilized for further assay.
(§2) Substrate preparation A 10-mg sample of cytochrome C, obtainable from conventional sources such as Sigma Chemical, St. Louis is dissolved in 9.6 mL of distilled water. To this is added add 200 μL of 0.1 M NaN3 (sodium azide) and 200 μL of PBS (pH 7.8).
(§3) Performance of the enzyme assay A 900-μL volume of cytochrome C solution (reaction substrate) is pipetted into a 1-mL (PMMA) cuvette. The sample is mixed and allowed to incubate for 15 minutes at 37°. A 100-μL volume of enzyme preparation is added to the sample cuvette and mixed thoroughly. The absorption of reduced cytochrome C at 550 nm is measured exactly 60 seconds after addition of the enzyme preparation to the cuvette. The absorption of cytochrome C at 550 nm is again measured after 5 minutes of incubation at 37° C. after the first measurement. […]
(§4) Determination of enzymatic activity The specific activity of the enzyme species is expressed as nanomoles (nmol) of cytochrome C reduced per μL blood per 5 minutes. For quantitative analyses, a calibration curve with 0, 30, 50, 100, 130 nmol reduced cytochrome C concentrations is prepared. For calculation of the enzymatic activity expressed per blood cell, the number of red blood cells, white blood cells and IS platelets are determined. The cell counts of these cells can be determined from the undiluted citrate blood according to standard procedures. […]

[3] = system: NADH cytochrome C reductase; test: NADH cytochrome C reductase assay of whole blood, soccer players before and after oral NADH; assay type: in vivo, human; parameters: key to Enzyme Activity after NADH intake: nmol cytochrome C reduced per µL blood per 5 min
Description: as §1, §2, §3, §4

[4] = system: NADH cytochrome C reductase; test: NADH cytochrome C reductase assay, rats before and after oral NADH; assay type: in vivo; parameters: Enzyme Activity after NADH intake: unit not given here
Description: as §1, §2, §3
Determination of enzymatic activity The specific activity of the enzyme species is expressed as nanomoles (nmol) of cytochrome C reduced per μL blood per 5 minutes. For quantitative analyses, a calibration curve with 0, 30, 50, 100, 130 nmol reduced cytochrome C concentrations is prepared. For calculation of the enzymatic activity expressed per blood cell, the number of red blood cells, white blood cells and IS platelets are determined. The cell counts of these cells can be determined from the undiluted citrate blood according to standard procedures.

[5] = Performance quality: continuous attention, vigilance, cognitrone (Vienna Test system); assay type: in vivo, human; parameters: Continuous attention: DRT (mean value), after NADH / Cognitrone: DRT (mean), after NADH / Vigilance: correct reactions, after NADH / Vigilance: DRT (mean), after NADH: unit not given here
Description: (§5) The performance quality, reaction speed and constancy of attention also was tested in these athletes. The performance quality was assessed by the accuracy with which a task was done, i.e., generally in terms of the number of correct identifications of stimuli. Methods used for determination of performance quality were measurement of the continuous attention, vigilance, and the cognitrone program of the Vienna Test system (Dr. Schuhfried Ges.m.b.H., Austria). For examination of the physical performance, a bicycle ergometer (Oxycon-Alpha, Jager Inc., Vienna, Austria) was used. […] The volume and the intensity of the training and exercise program of the athletes was kept constant over that period.

[6] = Physical performance by spiro-ergometry (bicycle ergometer); assay type: in vivo, human; conditions: 4 weeks
Description: as §5, with “period. […] Data reflecting this is presented below in Tables 2-4.” for “period.”

[7] = Lactate blood levels after maximum performance; assay type: in vivo, human
Description: as §5, with “period. […] Data reflecting this is presented below in Tables 2-4.” for “period.”

[8] = Physical performance on the treadmill or bicycle ergometer, soccer players; assay type: in vivo, human; conditions: 5-mg tablet NADH daily, one month
Description: A study similar to that of Example 3 was performed with a European soccer team. […] This increased energy production was confirmed by improved physical performance on the treadmill or bicycle ergometer.

[9] = soccer players, per subject, one 5-mg tablet NADH daily for one month
[10] = rats, per animal, one 2.5-mg tablet NADH daily for three months
[11] = 4 weeks after intake of one 5-mg tablet NADH per day, n = 17
[12] = 4 weeks of one 5-mg tablet NADH per day vs before, n = 17
[13] = after NADH, 1 tablet NADH (5 mg) per day
[14] = after 4 weeks of one 5-mg tablet NADH per day (n = 17)
[15] = after vs before 4 weeks of one 5-mg tablet NADH per day (n = 17)

## C[n+]1ccc(-c2ccccc2)cc1 [MPP^+, 1-methyl-4-phenyl-pyridine]
Complex I
  effect on complex I in the ETC: inhibits

## CN1CC=C(c2ccccc2)CC1 [MPTP, 1-methyl-4-phenyl-1,2,3,6-tetrahydropyridine]
[1]
  effect on NADH cytochrome C reductase: irreversibly inhibits and destroys

## NC(=O)C1=CN([C@@H]2O[C@H](COP(=O)(O)OP(=O)(O)OC[C@H]3O[C@@H](n4cnc5c(N)ncnc54)[C@H](O)[C@@H]3O)[C@@H](O)[C@H]2O)C=CC1 [NADH, reduced form of nicotinamide adenine dinucleotide]
[2]; competitive cyclists, per subject, one 5-mg tablet NADH daily for one month
  % Difference in enzyme activity (after vs before NADH intake): 50.00% (4×) and 57.10% and 46.70% (2×) and 76.90% and 47.10% (3×) and 64.30% and 60.00% and 61.50% and 53.30% and 58.30% and 41.20%
[2]; competitive cyclists, per subject, one 5-mg tablet NADH daily for one month, activity expressed as nmol cytochrome C reduced per μL blood per 5 minutes
  Enzyme Activity after NADH intake: 2.1 (2×) and 2.2 (3×) and 2.3 (3×) and 2.4 (4×) and 2.5 (3×) and 2.7 and 1.9
[2]; in nineteen of the twenty athletes, 5-mg tablet daily, one month
  endogenous NADH cytochrome C reductase activity: increase
[3]; fifteen soccer players, 5-mg tablet daily, one month
  endogenous NADH cytochrome C reductase activity: increase
[3]; [9]
  % Difference in enzyme activity (after vs before NADH intake): 20.00% (4×) and 8.30% and −8.30% and 0.00% (2×) and 33.00% and 16.00% and 7.10% (2×) and 162% and 75% and 6.60%
  Enzyme Activity after NADH intake: 1.2 and 1.3 (2×) and 1.6 (5×) and 1.4 (2×) and 1.1 and 1.5 (2×) and 2.1 (2×)
[4]; all test animals (rats), 2.5-mg tablet daily, three months
  enzymatic activity: increase
[4]; [10]
  % Difference in enzyme activity (after vs before NADH intake): 17.1% and 13.5% (2×) and 11.4% and 7.5% and 13.8% (2×) and 20.0% and 9.6% and 12.5%
  Enzyme Activity after NADH intake: 0.41 (3×) and 0.42 (2×) and 0.39 and 0.43 (2×) and 0.45 (2×)
[5]; [11]
  Cognitrone: Correct reactions, after NADH: 190.10
  Cognitrone: DRT (mean), after NADH: 2.09
  Continuous attention: DRT (mean value), after NADH: 0.81
  Continuous attention: Dispersion, after NADH: 0.17
  Continuous attention: correct reactions, after NADH: 118.80
  Continuous attention: missed reactions, after NADH: 1.24
  Vigilance: DRT (mean), after NADH: 0.55
  Vigilance: Dispersion, after NADH: 0.11
  Vigilance: correct reactions, after NADH: 97.88
  Vigilance: incorrect reactions, after NADH: 1.24
[5]; [12]
  Cognitrone: Correct reactions, % alteration per person: 2.98%
  Cognitrone: DRT (mean), % alteration per person: −16.05%
  Cognitrone: working time (min), % alteration per person: −14.36%
  Continuous attention: DRT (mean value), % alteration per person: −6.48%
  Continuous attention: Dispersion, % alteration per person: −11.59%
  Continuous attention: correct reactions, % alteration per person: 1.42%
  Continuous attention: incorrect reactions, absolute alteration per person: −1.12
  Continuous attention: missed reactions, absolute alteration per person: −1.41
  Vigilance: DRT (mean), % alteration per person: 7.79%
  Vigilance: Dispersion, % alteration per person: 4.79%
  Vigilance: correct reactions, % alteration per person: 0.01%
  Vigilance: incorrect reactions, absolute alteration per person: −0.65
  Vigilance: missed reactions, absolute alteration per person: 0.24
[5]; the nineteen athletes with increased enzyme activity, 5 mg NADH daily, 4 weeks
  mental performance: improved
[6]; [13]
  Hfmax, mean: 180.00
  Rmax, mean: 1.00
  VO2Max, mean: 4.98
  VO2Max/kg, mean: 71.20
  Vmax, mean: 163.00
  Wmax (maximum performance), mean: 340.00
  Wmax/kg, mean: 4.90
[6]; the nineteen athletes with increased enzyme activity, 5 mg NADH daily
  physical performance: improved
[7]; [14]
  Lactate Level 1 min. after maximum performance, after NADH, mean: 9.0
  Lactate Level 3 min. after maximum performance, after NADH, mean: 7.4
[7]; [15]
  Lactate Level 1 min. after maximum performance, Differences in percent, Dmax: 22.2%
  Lactate Level 1 min. after maximum performance, Differences in percent, Dmean: 10.0%
  Lactate Level 1 min. after maximum performance, Differences in percent, Dmed: 9.6%
  Lactate Level 1 min. after maximum performance, Differences in percent, Dmin: −7.3%
  Lactate Level 3 min. after maximum performance, Differences in percent, Dmax: 70.3%
  Lactate Level 3 min. after maximum performance, Differences in percent, Dmean: 17.2%
  Lactate Level 3 min. after maximum performance, Differences in percent, Dmed: −3.7%
  Lactate Level 3 min. after maximum performance, Differences in percent, Dmin: −22.5%
[8]
  physical performance on the treadmill or bicycle ergometer: improved
